# Source: patent EP0420914B1, “COSMETIC AND SKIN TREATMENT COMPOSITIONS” (PROCYTE CORPORATION, priority 1988, dated 1994)
# Tests used:
# [1] = system: dermis, epidermis and subcutis; assay: Histological thickness of dermis, epidermis and subcutis in mice after topical creams; type: in vivo, Swiss-Webster female mice; conditions: creams on days 0, 1, 3, 4 and 5, placebo had returned to naive control level
# Experimental: Skin from 31 Swiss-Webster female mice (average age - 18 months) was evaluated histologically for evidence of changes in skin architecture following several applications of placebo- and peptide-containing cream formulations. Measurements were made of dermal, epidermal and subcutis thickness using an eyepiece micrometer at 100X power.
# The mice had hair removed by a close clipping, and were treated on days 0, 1, 3, 4 and 5 with either glycyl-L-histidyl-L-lysine:copper(II), or representative derivatives glycyl-(3-methyl)-L-histidyl-L-lysine: copper(II) and glycyl-L-histidyl-L-lysyl-L-valyl-L-phenylalanyl-L-valine: copper(II), or a placebo cream (n = 5/group). Biopsies were performed on individual animals from the groups on days 6, 10, 12 and 14. In addition, eleven naive mice were biopsied on day 0.
# pig skin = assay: Collagen content and angiogenic activity of pig skin biopsies after topical cream; type: in vivo
# Experimental: In a typical experiment, a young pig was treated topically with a cream containing glycyl-(3-methyl)-L-histidyl-L-lysine:copper(II) or a placebo cream once a day for 12 days. Punch biopsies (6 mm dia.) were taken on day 0 and day 12. The biopsies were analyzed for total wet weight, alkaline phosphatase, total protein, and hydroxyproline content. Alkaline phosphatase is an enzyme marker for capillary endothelial cells and is an indicator of new angiogenesis. The hydroxyproline is a component of collagen, and increased hydroxyproline content indicates increased collagen content. The punch biopsies were prepared for biochemical analysis, basically by the method of Counts et al. (D. Counts, P. Knighten and G. Hegreberg, J. Invest. Derm. 69:521-26, 1977).
# In a first experiment, an increase in alkaline phosphatase activity and hydroxyproline content was detected on day 12 in the biopsies taken from skin treated with glycyl-(3-methyl)-L-histidyl-L-lysine:copper(II) relative to the placebo-treated area.
# The results obtained in a second experiment are graphically illustrated in Figure 4. In this experiment, biopsies were taken from the pig on days 0, 10 and 13 and analyzed for alkaline phosphatase activity.
# dermis = assay: Ultrasound evaluation of dermal density after topical cream on the forearm; type: in vivo, human; conditions: 10 women; cream twice daily for three weeks, volar forearm; score 0 no change to 3 marked change; p = 0.029 versus placebo cream
# Experimental: The effect of a representative composition, glycyl-(-3-methyl-L-histidyl-L-lysine:copper(II)(active agent), on the epidermis and dermis was evaluated by ultrasound. Ultrasound technique uses high-frequency sound, at 20 megahertz, to produce an echo signal of the skin. This signal is processed to produce a diagrammatic representation of the skin that is related to the structures of the skin by the strength of the reflected signal.
# The topical cream containing glycyl-(3-methyl)-L-histidyl-L-lysine:copper(II) or a control cream was applied twice daily for three weeks to the volar surface of the forearms of 10 female subjects with an average age of 31.7 years, using both the right and left sides in a random fashion for each cream. Subjects were evaluated by ultrasound scans at days 1, 7, 14 and 21.
# The dermal density after treatment as measured by ultrasound was evaluated on a scoring system whereby no change = 0, a slight change = 1, a moderate change = 2, and a marked change = 3. In 10 women treated with the cream-plus-active-agent, the average density score was 1.7, while the average score of the placebo-cream-only was 0.7. This difference was significant at a probability of p = 0.029.
# human epidermis = assay: Epidermal cell turnover rate by clearance of dansyl chloride; type: in vivo; conditions: seven female subjects; daily topical cream, upper inner arm; compared with the corresponding untreated site
# Experimental: The rate of cell turnover is determined by the number of days for clearance of dansyl chloride from stained stratum. Seven female subjects were used in the study, with an average age of 50.4 (± 3.8) years. Each subject was treated with 3% dansyl chloride in petrolatum on four sites on the upper inner arms. One site on each arm served as an untreated control and the other site as the treated site. Sites were randomized by computer as to left or right and as to proximal or distal areas of the upper arm. Twenty-four hours after occlusion, the sites were uncovered and photographed under ultraviolet light for fluorescence of the dansyl chloride. This photograph was designated as day 1. Photographs were made over the next four weeks until all subjects had completed the study, as determined by the final disappearance of the dansyl dye. The sites were then treated daily with a topical cream containing a representative composition, glycyl-(3-methyl)-L-histidyl-L-lysine:copper(II) or a control cream. The number of days for the total disappearance of the dansyl dye from the cream-treated sites was compared with the corresponding untreated site.
# subcutaneous fat layer = assay: Formation of the subcutaneous fat layer after a single injection in mice (histology); type: in vivo; conditions: for subcutaneous fat layer at the area of injection: histology of the injected area
# Experimental: A single dose of 50 micrograms of glycyl-L-histidyl-L-lysine n-octyl ester:Cu(II) was infiltrated under the skin in eight mice.
# In another series of experiments, mice were injected once with glycyl-L-histidyl-L-lysine octyl ester:copper(II) at a dose of 500 micrograms per mouse.
# This increase in subcutaneous fat is shown by taking a biopsy sample at day 21 through the area and sectioning for histology slides. […] The injected area is on the right with the adjacent uninjected area on the left of the photograph.
# A group of ten mice were injected once with glycyl-L-histidyl-L-lysine decyl ester:copper(II) at a dose of 500 micrograms per mouse. Microscopic examination provided evidence of increased fat cell layer in the area surrounding the injection site.
# A group of ten mice were injected once with glycyl-L-histidyl-L-lysine palmityl ester:copper(II) at a dose of 500 micrograms per mouse. Histological sections through the area of injection were similar to those described in Example VI.
# skin = assay: Topical ointment on human skin, single-subject case reports; type: in vivo; conditions: person
# Experimental: A person had skin covered by a sprinkled pattern of fine reddish spots of microhemorrhages beneath an irritated skin surface.
# A person had skin covered with a scaly eczema-like surface.
# A person with hair loss and numerous pigmented spots ("aging spots") was treated for 14 days on the top of their head with an ointment (consisting of 94% Unibase and 6% dimethysulfoxide) containing 4 milligrams of GHL-Cu octyl per gram.
# A person had irritated skin with numerous pimples.
# [2] = topical cream once a day for 12 days, 6 mm punch biopsy, day 12
# [3] = injected once, 500 micrograms per mouse
substance,measurement,setting,value
glycyl-(3-methyl)-L-histidyl-L-lysine:copper(II),epidermal thickness by day 14,[1],maintained an increased epidermal thickness
same,"alkaline phosphatase activity, second experiment (Figure 4)","pig skin; biopsies on days 0, 10 and 13, relative to placebo cream-treated areas",increased alkaline phosphatase
same,Angiogenic Activity (as alkaline phosphatase),pig skin; [2],0.013 ± 0.001 inc A405/min/mg
same,Collagen Content (as hydroxyproline),pig skin; [2],5.8 ± 0.2 µg/biopsy
same,average density score (dermal density by ultrasound),dermis,1.7
same,increase of average skin turnover rate,human epidermis,30.0%
glycyl-L-histidyl-L-lysine decyl ester:copper(II),subcutaneous fat layer at the area of injection,subcutaneous fat layer; [3],marked increase in the subcutaneous fat layer
glycyl-L-histidyl-L-lysine n-octyl ester:copper(II),softness and thickness of the skin covering the head,skin; treated 14 days on top of head,noticeably softer to the touch and possessed a greater thickness
same,number of aging spots,"skin; treated 14 days on top of head, 4 milligrams per gram in 94% Unibase and 6% dimethysulfoxide, thirty days after start",marked reduction in the number of aging spots
same,size of the remaining aging spots,"skin; treated 14 days, thirty days after start",reduction in the size of the remaining spots
same,number and size of the fat cells,"subcutaneous fat layer; injected once, 500 micrograms per mouse, biopsy at day 21",increase in both the number and size of the fat cells
same,increase in the subcutaneous fat layer in the skin near the injection site (fold),"subcutaneous fat layer; injected once, 500 micrograms per mouse, biopsy at day 21, versus adjacent uninjected area",approximately threefold
same,subcutaneous fat layer at the area of injection,subcutaneous fat layer; [3],significant increase in the thickness of the subcutaneous fat layer
same,amounts of subcutaneous fat,"subcutaneous fat layer; single dose of 50 micrograms infiltrated under the skin, eight mice",Increased amounts of subcutaneous fat were observed
glycyl-L-histidyl-L-lysine palmityl ester:copper(II),subcutaneous fat layer at the area of injection,subcutaneous fat layer; [3],increase in the subcutaneous fat layer
glycyl-L-histidyl-L-lysine: copper(II) [GHL-Cu],reddish spots of microhemorrhages,"skin; once daily for 9 days, 4 mg GHL-Cu per gram",complete clearing of the reddish spots
glycyl-L-histidyl-L-lysyl-L-valyl-L-phenylalanyl-L-valine: copper(II),epidermal thickness by day 14,[1],maintained an increased epidermal thickness
